We go through four compounds from paper PMC8624189, “Phenolic Profiles and Biological Activities of Extracts from Edible Wild Fruits Ehretia tinifolia and Sideroxylon lanuginosum” (Foods, 2021).

In brackets after ≈: the same amount, converted by molar mass.

For one test, the system named is human erythrocytes. Put plainly: Protective effect on human erythrocytes (AAPH-induced hemolysis). It counts as cell-based. Conditions: Erythrocyte, 37 °C, 3 h, read-out: Hemolytic Inhibition IC50. How it is done:
Hemolysis was induced by peroxyl radicals generated by AAPH (2-2'-Azobis (2-amidinopropane dihydrochloride) according to the methodology of Silva-Beltrán et al.. Then, 5 mL of blood was obtained from healthy human volunteers by venipuncture and collected into tubes containing EDTA as an anticoagulant. Erythrocytes were separated from plasma by centrifugation at 1500 rpm for 10 min at room temperature and washed three times with five volumes of phosphate-buffered saline (PBS) (37 mM of NaCl, 2.7 mM of KCI, 8 mM of Na2HPO4, and 2 mM of KH2PO4 w/v) at pH 7.4. Later, erythrocytes were suspended in four volumes of PBS solution to obtain a density of 8 × 10^9 cells/mL. The addition of AAPH to the suspension of washed erythrocytes induces oxidation of membrane lipids and proteins, resulting in hemolysis. The erythrocyte suspension (250 μL) was mixed with 250 μL of fruit extracts dissolved in PBS at concentrations of 500, 750, 1000, 2000 μg/mL and 250 μL of 300 mM AAPH in PBS. The reaction mixture was shaken gently while being incubated at 37 °C for 3 h. […] The supernatant's absorbance was measured in a microplate reader (Agilent BioTek Epoch, Santa Clara, CA, United States) at 540 nm. Percent inhibition was calculated by the following equation:% Inhibition = [[…] × 100] where AAAPH is the absorbance of AAPH at 540 nm and As is the absorbance of the extracts at 540 nm. […]

Another test relates to HeLa cells. In words: Antiproliferative activity, Alamar Blue, HeLa. It counts as cell-based. The conditions noted are these: Homo sapiens, 24 h exposure, read-out: Half Maximal Inhibitory Concentration HeLa. How it is done:
(§1) The antiproliferative effects of extracts of E. tinifolia and S. lanuginosum were assessed using the method described previously by Viveros-Valdez, et al.. HeLa (ATCC® CCL-2), MCF-7 (ATCC® HTB-22) and HT-29 (ATCC® HTB-38) cancer cell lines were used. The cells were seeded in 25 cm^2 tissue culture flasks in Dulbecco’s modified eagle medium (DMEM) mixed with Ham’s nutrients (Ham’s F-12) and supplemented with 10% fetal bovine serum (FBS), adjusting the pH to 7.2. A mixture of antibiotics composed of penicillin and streptomycin (10,000 IU/mL: 10,000 µg/mL; 1 mL of mixture/1 L of medium) was added. Cells were maintained at 37 °C in an incubator under a 5% CO2/95% air atmosphere at constant humidity. Cells were harvested by trypsinization, counted with a hemocytometer, and their viability was confirmed by Trypan Blue (0.4%). The different cancer cell lines were seeded with 5000 cells per well in a 96 well plate.

A further test deals with HT-29 cells. Put plainly: Antiproliferative activity, Alamar Blue, HT-29. The conditions noted are these: Homo sapiens, 24 h exposure, read-out: Half Maximal Inhibitory Concentration HT-29. The format is cell-based. As to the method:
as §1

For the next test, the system named is erythrocytes. Conditions: cited from earlier work.
The test system of a further test is MCF-7 cells. The conditions noted are these: read-out: EC50 in inhibiting MCF-7 cell growth; cited from earlier work.

For the compound `O=C1O[C@H]([C@@H](O)CO)C(O)=C1O` [ascorbic acid], in the test with human erythrocytes, the IC50 amounted to 289 ± 20 µg/mL (≈ 1640 µM). For `CC(=O)O[C@H]1C(=O)[C@@]2(C)[C@H]([C@H](OC(=O)c3ccccc3)[C@]3(O)C[C@H](OC(=O)[C@H](O)[C@@H](NC(=O)c4ccccc4)c4ccccc4)C(C)=C1C3(C)C)[C@]1(OC(C)=O)CO[C@@H]1C[C@@H]2O` [taxol, Taxol], the figures for the IC50 with HeLa cells and in the test with HT-29 cells were 11 ± 2 µg/mL (≈ 12.9 µM) and 15 ± 1 µg/mL (≈ 17.6 µM), respectively.

For the compound `Oc1cc(O)c2c(c1)O[C@H](c1ccc(O)c(O)c1)[C@H](O)C2` [epicatechin], the “hemolysis inhibition IC50” value with erythrocytes is 42.3 µg/mL.

In the case of `O=c1c(O[C@@H]2O[C@H](CO)[C@@H](O)[C@H](O)[C@H]2O)c(-c2ccc(O)c(O)c2)oc2cc(O)cc(O)c12` [QG, quercetin glucoside], the concentration for a half-maximal effect (EC50) in the test on MCF-7 cells is 46.4 µM.
